According to paper PMC6585621 (Clinical Pharmacology and Therapeutics, 2018):
Like-named read-outs stand apart in the source and are kept apart here.

Columns and labels:
[1] = Pharmacokinetics of clopidogrel and its metabolites with and without ritonavir; assay type: in vivo, human; settings: for C max / AUC0‐4h / AUC0‐∞ / t ½ / t max / AUC / half-life: after clopidogrel 300 mg oral; for C max / AUC0‐4h / AUC0‐∞ / t ½ / Clopidogrel active metabolite: clopidogrel AUC0‐∞ ratio / AUC / half-life: geometric mean (geometric CV); for t max: median (range); for half-life: t ½
[2] = cited from earlier work
platelet aggregation = settings: clopidogrel 300 mg, arithmetic mean (SD)
[3] = test system: carboxylesterase 1 (CES1); settings: cited from earlier work
[4] = assay type: in vivo, human
[5] = cited from earlier work; remark: listed apart in the source
CYP3A4 = settings: in the absence of ritonavir; cited from earlier work
[6] = cited from earlier work; remark: listed apart in the source
[7] = clopidogrel and ritonavir phase (ritonavir 100 mg twice daily)
[8] = clopidogrel and ritonavir phase

**Q.** Which results are given for `COC(=O)[C@H](c1ccccc1Cl)N1CC[C@@H](S)/C(=C\C(=O)O)C1` [Clopidogrel active metabolite]?
**A.** C max [1, 7]: 6.77 (140) ng/mL; AUC0‐4h [1, 8]: 9.16 (150) ng·h/mL; AUC0‐∞ [1, 8]: 14.9 (170) ng·h/mL; t ½ [1, 8]: 0.89 (90) h; t max [1, 8]: 0.92 (0.92–1.5) h; AUC0‐4h ([1]; clopidogrel phase): 18.7 (77) ng·h/mL; AUC0‐∞ ([1]; clopidogrel phase): 19.3 (79) ng·h/mL; C max ([1]; clopidogrel phase): 13.0 (72) ng/mL; t ½ ([1]; clopidogrel phase): 1.05 (58) h; t max ([1]; clopidogrel phase): 0.92 (0.92–1.5) h; Clopidogrel active metabolite: clopidogrel AUC0‐∞ ratio [1, 8]: 1.83 (200); Clopidogrel active metabolite: clopidogrel AUC0‐∞ ratio ([1]; clopidogrel phase): 1.79 (110); AUC0‐4h in clopidogrel–ritonavir phase as % of that in the clopidogrel phase ([1]; geometric mean): 49%; C max in clopidogrel–ritonavir phase as % of that in the clopidogrel phase ([1]; geometric mean): 52%; AUC0‐4h, clopidogrel and ritonavir phase to clopidogrel phase ratio ([1]; geometric mean ratio (90% CI)): 0.49 (0.39–0.61); P = 0.0001; AUC0‐∞, clopidogrel and ritonavir phase to clopidogrel phase ratio ([1]; geometric mean ratio (90% CI)): 0.77 (0.59–1.00); C max, clopidogrel and ritonavir phase to clopidogrel phase ratio ([1]; geometric mean ratio (90% CI)): 0.52 (0.41–0.65); P = 0.0003; Clopidogrel active metabolite: clopidogrel AUC0‐∞ ratio, clopidogrel and ritonavir phase to clopidogrel phase ratio ([1]; geometric mean ratio (90% CI)): 1.03 (0.53–1.97); t ½, clopidogrel and ritonavir phase to clopidogrel phase ratio ([1]; geometric mean ratio (90% CI)): 0.85 (0.66–1.08); decrease of AUC by ketoconazole [2]: 22–29%

**Q.** With `O=C(O)[C@H]1O[C@@H](OC(=O)[C@H](c2ccccc2Cl)N2CCc3sccc3C2)[C@H](O)[C@@H](O)[C@@H]1O` [Clopidogrel acyl‐β‐D‐glucuronide, clopidogrel acyl‐β‐D‐glucuronide] as the compound, how does the C max [1, 7] read?
**A.** 1,610 (43) ng/mL

**Q.** And the “AUC0‐4h” value [1, 8]?
**A.** 4,030 (45) ng·h/mL

**Q.** And the “AUC0‐∞” value [1, 8]?
**A.** 6,430 (46) ng·h/mL

**Q.** What about the “t ½” value [1, 8] of the same compound?
**A.** 2.02 (8.5) h

**Q.** What about the t max [1, 8] of the same compound?
**A.** 1.5 (1.5–3.0) h

**Q.** What about the “AUC0‐4h” value ([1]; clopidogrel phase) of the same compound?
**A.** 3,630 (56) ng·h/mL

**Q.** What about the “AUC0‐∞” value ([1]; clopidogrel phase) of the same compound?
**A.** 6,840 (53) ng·h/mL

**Q.** And the C max ([1]; clopidogrel phase)?
**A.** 1,420 (57) ng/mL

**Q.** What about the “t ½” value ([1]; clopidogrel phase) of the same compound?
**A.** 2.83 (19) h

**Q.** And the t max ([1]; clopidogrel phase)?
**A.** 1.75 (0.92–2.0) h

**Q.** What about the “AUC0‐4h, clopidogrel and ritonavir phase to clopidogrel phase ratio” value ([1]; geometric mean ratio (90% CI)) of the same compound?
**A.** 1.11 (0.86–1.43)

**Q.** What about the “AUC0‐∞, clopidogrel and ritonavir phase to clopidogrel phase ratio” value ([1]; geometric mean ratio (90% CI)) of the same compound?
**A.** 0.94 (0.71–1.23)

**Q.** What about the “C max, clopidogrel and ritonavir phase to clopidogrel phase ratio” value ([1]; geometric mean ratio (90% CI)) of the same compound?
**A.** 1.13 (0.86–1.47)

**Q.** And the “t ½, clopidogrel and ritonavir phase to clopidogrel phase ratio” value ([1]; geometric mean ratio (90% CI))?
**A.** 0.71 (0.63–0.81); P = 0.0007

**Q.** Which C max [1, 7] does the source give for `O=C(O)[C@H](c1ccccc1Cl)N1CCc2sccc2C1` [Clopidogrel carboxylic acid, clopidogrel carboxylic acid] here?
**A.** 12,300 (34) ng/mL

**Q.** And the “AUC0‐4h” value [1, 8]?
**A.** 27,800 (37) ng·h/mL

**Q.** And the “AUC0‐∞” value [1, 8]?
**A.** 41,600 (37) ng·h/mL

**Q.** What about the “t ½” value [1, 8] of the same compound?
**A.** 2.46 (12) h

**Q.** What about the t max [1, 8] of the same compound?
**A.** 0.92 (0.92–1.5) h

**Q.** And the “AUC0‐4h” value ([1]; clopidogrel phase)?
**A.** 26,800 (29) ng·h/mL

**Q.** And the “AUC0‐∞” value ([1]; clopidogrel phase)?
**A.** 44,300 (26) ng·h/mL

**Q.** And the C max ([1]; clopidogrel phase)?
**A.** 12,200 (22) ng/mL

**Q.** And the “t ½” value ([1]; clopidogrel phase)?
**A.** 2.98 (21) h

**Q.** And the t max ([1]; clopidogrel phase)?
**A.** 0.92 (0.92–1.5) h

**Q.** And the “AUC0‐4h, clopidogrel and ritonavir phase to clopidogrel phase ratio” value ([1]; geometric mean ratio (90% CI))?
**A.** 1.04 (0.91–1.18)

**Q.** And the “AUC0‐∞, clopidogrel and ritonavir phase to clopidogrel phase ratio” value ([1]; geometric mean ratio (90% CI))?
**A.** 0.94 (0.80–1.10)

**Q.** And the “C max, clopidogrel and ritonavir phase to clopidogrel phase ratio” value ([1]; geometric mean ratio (90% CI))?
**A.** 1.01 (0.89–1.15)

**Q.** And the “t ½, clopidogrel and ritonavir phase to clopidogrel phase ratio” value ([1]; geometric mean ratio (90% CI))?
**A.** 0.83 (0.72–0.95); P = 0.03

**Q.** Which results are given for `COC(=O)[C@H](c1ccccc1Cl)N1CCc2sccc2C1` [Clopidogrel, clopidogrel, reference compound]?
**A.** AUC0‐4h, clopidogrel and ritonavir phase to clopidogrel phase ratio ([1]; geometric mean ratio (90% CI)): 0.75 (0.40–1.44); AUC0‐∞, clopidogrel and ritonavir phase to clopidogrel phase ratio ([1]; geometric mean ratio (90% CI)): 0.75 (0.39–1.43); C max, clopidogrel and ritonavir phase to clopidogrel phase ratio ([1]; geometric mean ratio (90% CI)): 0.79 (0.40–1.57); t ½, clopidogrel and ritonavir phase to clopidogrel phase ratio ([1]; geometric mean ratio (90% CI)): 0.89 (0.72–1.11); Cmax ([1]; human, plasma, po, 300 mg): 4.49 ng/mL; AUC ([1]; human, plasma, po, 300 mg, AUC0‐4h, clopidogrel and ritonavir phase): 6.44 ng·h/mL; AUC ([1]; human, plasma, po, 300 mg, AUC0‐4h, clopidogrel phase): 8.53 ng·h/mL; AUC ([1]; human, plasma, po, 300 mg, AUC0‐∞, clopidogrel and ritonavir phase): 8.14 ng·h/mL; AUC ([1]; human, plasma, po, 300 mg, AUC0‐∞, clopidogrel phase): 10.8 ng·h/mL; half-life ([1]; human, plasma, po, 300 mg, clopidogrel and ritonavir phase): 106 min; half-life ([1]; human, plasma, po, 300 mg, clopidogrel phase): 119 min; Inhibition of platelet aggregation, average inhibition at 0‐24 h (platelet aggregation; [8]): 31 (28) %; Inhibition of platelet aggregation, maximal inhibition (platelet aggregation; [8]): 40 (29) %; Inhibition of platelet aggregation, average inhibition at 0‐24 h (platelet aggregation; clopidogrel phase): 51 (24) %; Inhibition of platelet aggregation, maximal inhibition (platelet aggregation; clopidogrel phase): 60 (23) %; fraction hydrolyzed by CES1 to inactive carboxylic acid metabolite [3]: About 90%

**Q.** What does the source list for `COc1c(-c2ccc3cc(NS(C)(=O)=O)ccc3c2)cc(-n2ccc(=O)[nH]c2=O)cc1C(C)(C)C` [Dasabuvir, dasabuvir, reference compound]?
**A.** highest individual increase in AUC0‐∞, clopidogrel phase vs placebo phase ([4]; 12 subjects): > 10 fold; range of individual increases of AUC0‐∞ by clopidogrel compared with placebo ([4]; 12 subjects, clopidogrel phase vs placebo phase): 2.0–10.1 fold; t ½ ([4]; after dasabuvir 250 mg oral, ritonavir phase, geometric mean (geometric CV)): 8.22 (25) h; AUC0‐∞ in clopidogrel phase as % of that during placebo ([4]; geometric mean): 467%; AUC0‐∞ in clopidogrel–ritonavir phase as % of that during the ritonavir phase ([4]; geometric mean): 389%; C max in clopidogrel–ritonavir phase as % of that during the ritonavir phase ([4]; geometric mean): 182%; AUC0‐23h, clopidogrel and ritonavir phase to ritonavir phase ratio ([4]; geometric mean ratio (90% CI)): 3.13 (2.17–4.52) P = 0.00002; AUC0‐∞, clopidogrel phase to placebo phase ratio ([4]; geometric mean ratio (90% CI)): 4.67 (3.23–6.74) P = 8·10^−7; C max, clopidogrel and ritonavir phase to ritonavir phase ratio ([4]; geometric mean ratio (90% CI)): 1.82 (1.27–2.61) P = 0.004; C max, clopidogrel phase to placebo phase ratio ([4]; geometric mean ratio (90% CI)): 1.63 (1.03–2.57) P = 0.07; t ½, clopidogrel and ritonavir phase to ritonavir phase ratio ([4]; geometric mean ratio (90% CI)): 1.40 (1.14–1.73) P = 0.005; t ½, clopidogrel phase to placebo phase ratio ([4]; geometric mean ratio (90% CI)): 1.84 (1.59–2.13) P = 1·10^−6; contribution of CYP2C8 to metabolism ([4]; implied from clopidogrel interaction, both with and without ritonavir): exceed 80%; effect of ritonavir on pharmacokinetics compared to pretreatment with placebo ([4]; ritonavir 100 mg twice daily): did not cause significant changes; trend of lower concentrations in the ritonavir phase than in the placebo phase ([4]; statistically insignificant): –20%; prolongation of half‐life (t ½) by concomitant gemfibrozil ([5]; humans): 18 fold; increase of AUC by concomitant gemfibrozil ([5]; humans, during ritonavir coadministration): 11 fold; fraction metabolized by CYP2C8 ([5]; in the presence of the CYP3A4 inhibitor ritonavir): > 0.9; share of overall metabolism for which CYP3A4 is responsible (CYP3A4): about 30%; PBPK-predicted increase of AUC by clopidogrel [6]: 1.9–2.8 fold; implied reduction in clearance by clopidogrel (PBPK prediction) [6]: 47–64%
